Laboratory results from US12396964B2 (Shinkei Therapeutics, Inc., priority 2021, dated 2025).
Structures can show the parent of a compound that is named as a salt.

What was measured:
[1] = clinical; conditions: human, in vivo
Method: The subjects received the test treatments as described in Table 1 below, under direct observation following an overnight fast of at least 10 hours.
Plasma concentrations of amantadine increased rapidly and reached maximum plasma concentrations at around 3 hours after start of the IV infusion.
The plasma amantadine concentrations from healthy adults enrolled in the open-label, multiple-cohort, single-period non-randomized single-ascending dose study of Example 1 were used to determine the decrease in concentration of amantadine over time, after the administration of the first dose of 100 mg and 150 mg in different cohorts. The data is supportive in determining the timing of the second dose of amantadine.

[2] = Safety and tolerability study of amantadine hydrochloride IV solution 200 mg with plasma sampling in healthy adult subjects (Example 2); assay type: in vivo, human; conditions: 200 mg IV
Method: 4 mL venous blood was collected before dosing (0 hour) and at the following nominal times after dosing: 0.5, 1, 2, 3, 4, 5, 5.5, 6, 7, 9, 12, 16, 24, 36, 48 and 72 hours post-dose. Safety was assessed by qualified study staff by evaluating the following: reported adverse events, clinical laboratory test results, vital sign measurements, ECG findings, physical examination findings at screening and clinic exit (including body weight and height measurements), and concomitant medication usage. The blood samples collected were used to assess the decrease in concentration of amantadine in the plasma over time, and is tabulated in Table 3 below.

[3] = Applicants' finding on safety of the intravenous dose, volume and rate of administration
Method: As discussed above, the volume of fluid is not only critical in terms of increase in ICP, but it is also critical in terms of defining the time of administration of the dose, and therefore, the rate of administration of the dose. […] Each dose is administered over a period of 180 minutes, i.e. at a rate of about 1.39 ml/min.

Question: Which half-life ([1]; both sexes, iv, T1/2) does the source give for `NC12CC3CC(CC(C3)C1)C2` [amantadine hydrochloride] here?
Answer: 11.4 h

Question: And the Tmax ([1]; both sexes, iv, Tmax)?
Answer: 3 h

Question: What about the half-life ([1]; both sexes, iv, half-life (T½)) of the same compound?
Answer: 11 to 15 h

Question: And the Tmax ([1]; both sexes, iv, maximum plasma concentration (Tmax))?
Answer: 3 to 4 h

Question: And the half-life ([1]; both sexes, iv, mean elimination half-life)?
Answer: 11.5 to 14.5 h

Question: What about the “increase of AUC0-28, more than proportional to the dose” value ([1]; both) of the same compound?
Answer: ~3 fold

Question: What about the “increase of Cmax, more than proportional to the dose” value ([1]; both) of the same compound?
Answer: ~2.3 fold

Question: What about the Tmax ([1]; both, iv) of the same compound?
Answer: 3.25 h

Question: What about the “plasma levels remained detectable post-dose” value ([1]; both, iv, 3 h) of the same compound?
Answer: 48 to 72 h

Question: And the “% decrease in plasma amantadine concentration” value (“% decrease” for short) ([2]; 0 hr after first dose)?
Answer: 0.0%

Question: What about the “% decrease” value ([2]; 1 hr after first dose) of the same compound?
Answer: 14.0%

Question: And the “% decrease” value ([2]; 2 hr after first dose)?
Answer: 20.9%

Question: And the “% decrease” value ([2]; 2.5 hr after first dose)?
Answer: 24.5%

Question: And the “% decrease” value ([2]; 3 hr after first dose)?
Answer: 26.2%

Question: What about the “% decrease” value ([2]; 4 hr after first dose) of the same compound?
Answer: 30.0%

Question: And the “% decrease” value ([2]; 6 hr after first dose)?
Answer: 34.5%

Question: And the “% decrease” value ([2]; 9 hr after first dose)?
Answer: 48.3%

Question: What about the “safety of the dose” value ([3]; about 100 mg to about 200 mg in a volume of 250 ml as a single dose, over 180 minutes, twice a day) of the same compound?
Answer: safe

Question: And the “safety of the rate of administration” value ([3]; rate ranging between 0.5 mg/min to about 1.2 mg/min)?
Answer: safe
